Reference: patent US20180319762A1, “5-deoxy-irilin B Having Angiotensin-I-converting enzyme Inhibition Activity derived from Salicornia SPP. and Composition Containing the Same” (PHYTO CORPORATION, priority 2015, published 2018)

What was measured:
[1] = biological target: T1, angiotensin-I-converting enzyme (ACE) (Oryctolagus cuniculus, UniProt P12822); assay: ACE (Angiotensin I-Converting Enzyme) inhibition activity, Hip-His-Leu substrate, absorbance at 228 nm; assay type: biochemical, rabbit
T1 construct: tissue Sigma; host or cells: rabbit lung (acetone powder, borate buffer extract supernatant)
T1 sequence (P12822 34-1310): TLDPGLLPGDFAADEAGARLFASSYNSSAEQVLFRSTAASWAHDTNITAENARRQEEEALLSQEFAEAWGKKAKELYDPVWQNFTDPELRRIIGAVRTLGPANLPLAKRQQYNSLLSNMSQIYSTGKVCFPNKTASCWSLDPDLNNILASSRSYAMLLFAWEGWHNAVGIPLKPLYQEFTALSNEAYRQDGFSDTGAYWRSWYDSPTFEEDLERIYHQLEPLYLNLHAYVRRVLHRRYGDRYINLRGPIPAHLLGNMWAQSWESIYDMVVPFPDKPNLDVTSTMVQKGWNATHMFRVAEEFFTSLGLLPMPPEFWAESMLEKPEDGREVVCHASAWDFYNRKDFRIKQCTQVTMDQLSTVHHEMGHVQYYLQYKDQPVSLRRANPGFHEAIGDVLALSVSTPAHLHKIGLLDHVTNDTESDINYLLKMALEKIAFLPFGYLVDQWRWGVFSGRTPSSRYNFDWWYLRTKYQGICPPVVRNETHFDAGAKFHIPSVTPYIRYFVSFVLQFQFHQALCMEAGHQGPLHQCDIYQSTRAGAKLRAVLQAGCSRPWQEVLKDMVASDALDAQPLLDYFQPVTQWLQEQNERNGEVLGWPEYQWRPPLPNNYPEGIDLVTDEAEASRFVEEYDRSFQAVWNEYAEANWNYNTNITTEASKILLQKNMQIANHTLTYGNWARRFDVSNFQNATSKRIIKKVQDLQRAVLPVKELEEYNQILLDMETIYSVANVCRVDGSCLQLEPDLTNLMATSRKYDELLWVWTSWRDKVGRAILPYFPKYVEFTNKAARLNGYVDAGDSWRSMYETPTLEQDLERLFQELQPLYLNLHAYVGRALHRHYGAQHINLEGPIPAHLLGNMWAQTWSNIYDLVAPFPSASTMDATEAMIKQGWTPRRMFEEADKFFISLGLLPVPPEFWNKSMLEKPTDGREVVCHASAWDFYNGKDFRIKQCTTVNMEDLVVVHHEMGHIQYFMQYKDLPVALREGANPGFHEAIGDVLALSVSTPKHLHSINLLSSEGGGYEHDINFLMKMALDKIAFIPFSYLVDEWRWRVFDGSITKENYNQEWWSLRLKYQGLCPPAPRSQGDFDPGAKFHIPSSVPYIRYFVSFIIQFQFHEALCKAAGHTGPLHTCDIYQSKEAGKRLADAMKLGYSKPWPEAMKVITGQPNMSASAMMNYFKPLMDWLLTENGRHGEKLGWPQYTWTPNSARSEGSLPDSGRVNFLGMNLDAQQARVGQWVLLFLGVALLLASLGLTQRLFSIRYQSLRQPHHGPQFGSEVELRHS
Method: As shown in the results of Table 8, the hydrolyzed Salicornia salty sauces had very high functional polyphenol and flavonoid contents compared to the non-hydrolyzed salty sauce. Thus, as an indicator for antihypertensive activity, angiotensin-I-converting enzyme (ACE) inhibition activity was evaluated. As the test sample, each salty sauce, adjusted to a salt content of 14%, was added at a concentration of 1 to 5 μL/mL to the reaction solution, and then measured.
Angiotensin-II, produced by ACE, promotes an increase in blood pressure and secretion of antidiuretic hormone aldosterone, and suppresses the emission of water and sodium to thus increase blood circulation, thus causing hypertension. […] Specifically, 1 g of a rabbit lung acetone powder (Sigma Col) in 50 μL of the sample was mixed with 25 μL (2.5 unit) of an ACE supernatant dissolved in a 0.1 M sodium borate buffer containing 10 mL of 0.3 M NaCl, 50 μL of a 0.1 M sodium borate buffer (pH 8.3) containing 0.3 M NaCl, and 25 μL of a sample solution at various concentrations (0.25, 0.5 and 1.0 mg/mL), and then preincubated at 37° C. for 10 min. Further, 50 μL of a Hip-His-Leu substrate solution was added, and the resulting mixture was allowed to react at 37° C. for 30 min, after which the reaction was stopped by the addition of 100 μL of 1 N HCl. 1 mL of ethyl acetate was added, and the resulting reaction mixture was agitated in a vortex for 1 min and centrifuged at 3,000 g for 15 min, after which 0.8 mL of the separated ethyl acetate supernatant (extract) was recovered. The supernatant was warmed in a hood and thus completely volatilized, and was then dissolved in 1 mL of a sodium borate buffer under the same conditions, after which absorbance at 228 nm was measured and ACE inhibition activity was calculated.
During purification, the organic solvent fractions (at concentrations of 10, 25, 50 μg/mL) were measured for ACE inhibition activity in the same manner as in Example 3-2.

[2] = Solubility (physical and chemical properties of Compound A); assay type: physicochemical

Row | IC50 [1] | inhibition at 10 µg/mL ([1]; at a concentration of 10 μg/mL) | ACE inhibition activity, rank among compared samples/fractions ([1]; compared with the other sauces or with the other fractions of the same purification step) | Solubility ([2]; in methanol, ethanol, ethyl acetate, and chloroform) | Solubility ([2]; in water) | Structure (SMILES)
1 | 15.8 µM | ≥ 95% | the greatest | Soluble | insoluble | COc1cc2c(=O)c(-c3ccccc3O)coc2cc1O [EDS-LH-7b, 7-hydroxy-3-(2′-hydroxyphenyl)-6-methoxy-4H-1-benzopyran-4-one]
2 | 93.3 µM | – | – | – | – | O=c1cc(-c2ccc(O)c(O)c2)oc2cc(O)cc(O)c12 [Luteolin, reference compound]
